Assay results published in patent US8288552B2, “Dihydropyridone amidesas P2X7 modulators” (Roche Palo Alto LLC, priority 2008, dated 2012).

Biological target: T1, P2X7 (UniProt Q99572)
T1 sequence (Q99572 1-595): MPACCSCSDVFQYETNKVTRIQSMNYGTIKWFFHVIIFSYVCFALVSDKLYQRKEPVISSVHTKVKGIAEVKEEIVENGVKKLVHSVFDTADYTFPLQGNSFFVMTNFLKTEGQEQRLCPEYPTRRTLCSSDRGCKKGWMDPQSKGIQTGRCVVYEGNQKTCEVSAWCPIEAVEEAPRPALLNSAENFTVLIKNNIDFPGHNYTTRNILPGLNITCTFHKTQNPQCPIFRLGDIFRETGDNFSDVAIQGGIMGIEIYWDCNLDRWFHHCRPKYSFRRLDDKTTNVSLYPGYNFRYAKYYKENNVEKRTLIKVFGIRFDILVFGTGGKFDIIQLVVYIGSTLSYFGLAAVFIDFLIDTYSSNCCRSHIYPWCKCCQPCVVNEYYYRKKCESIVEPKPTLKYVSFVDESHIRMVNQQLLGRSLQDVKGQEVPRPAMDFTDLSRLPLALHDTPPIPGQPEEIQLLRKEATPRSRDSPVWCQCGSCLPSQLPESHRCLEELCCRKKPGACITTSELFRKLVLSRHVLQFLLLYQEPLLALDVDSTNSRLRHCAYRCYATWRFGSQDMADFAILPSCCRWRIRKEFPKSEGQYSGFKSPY
Assay: P2X7 pKi of Table 1
Type: cell-based
Protocol: Intracellular Calcium Flux (FLIPR) Assay
Compound and Reagent Preparation
Stock solutions of compounds were prepared from powders as a 10 mM DMSO stock solution. These solutions were stored at RT during the two week period of these experiments to prevent freeze-thaw of the DMSO stocks. The DMSO stocks were added to the appropriate assay buffer at a concentration of 10 μM, and then diluted serially to the final concentrations that were tested. […] The aqueous solutions of compounds as well as ATP (Sigma A7699) and BzATP (Sigma B6396) were prepared fresh for each day of experiment.
1321N1 cells stably expressing the full length human P2X7 gene (1321N1-hP2X7) and HEK293 cells stably expressing the full length rat P2X7 gene (HEK293-rP2X7) were obtained from the Roche Cell Culture Facility. 1321N1-hP2X7 cells were grown in Dulbecco's Modified Eagle's Medium (DMEM) high glucose supplemented with 10% FBS and 250 μg/mL G418. HEK293-rP2X7 cells were grown in DMEM/F-12 supplemented with 10% FBS, 1 mM CaCl2, 2 mM MgCl2, 2 mM L-Glutamine and 500 μg/ml G418. Cells were split such that they never became >70% confluent.
Intracellular Calcium Flux (FLIPR)
On the day prior to the experiment, 1321N1-hP2X7 or HEK293-rP2X7 cells were released into suspension with calcium-free PBS+Versene and washed by centrifugation with calcium-free PBS to remove the Versene. Cells were resuspended in growth medium at a density of 2.5×10^5 cells/mL and seeded into black walled, clear bottom 96 well plates (50,000 cells/well) approximately 18 hr prior to intracellular calcium flux experiments.
On the day of the experiment, plates were washed with FLIPR buffer (calcium- and magnesium-free Hank's Balanced Salt Solution (HBSS) supplemented with 10 mM Hepes, 2.5 mM probenecid and 2 mM calcium chloride) using a BIO-TEK 96 channel plate washer and incubated with […] fluo-3 dye at 37° C. for one hr. The dye was then removed by plate washing and the cells were allowed to equilibrate for 20 min at room temperature with antagonist or vehicle (FLIPR buffer). Agonist (100 μM BzATP final concentration for hP2X7; 5 μM BzATP final concentration or rP2X7) was added online with the FLIPR and fluorescence measurements made at 1 sec intervals for 60 sec followed by 3 sec intervals for a further 4 min (5 min total). A final addition of 5 μM ionomycin was made and the maximal BzATP-evoked fluorescence normalized to the maximal ionomycin-evoked fluorescence.

| pKi | SMILES |
| --- | --- |
| 7.4925 | COc1cc(Br)c(NC(=O)C2=CNC(=O)CC2c2ccccc2)cc1OC (stereo not drawn) [Compound 1, 6-Oxo-4-phenyl-1,4,5,6-tetrahydro-pyridine-3-carboxylic acid(2-bromo-4,5-dimethoxy-phenyl)-amide] |
| 6.595 | COc1cc(NC(=O)C2=CNC(=O)CC2c2ccccc2)c(Br)cc1C (stereo not drawn) [Compound 2, 6-Oxo-4-phenyl-1,4,5,6-tetrahydro-pyridine-3-carboxylic acid(2-bromo-5-methoxy-4-methyl-phenyl)-amide] |
| 5.95 | COc1cc(NC(=O)C2=CNC(=O)CC2c2ccccc2)c(Br)cc1Cl (stereo not drawn) [Compound 3, 6-Oxo-4-phenyl-1,4,5,6-tetrahydro-pyridine-3-carboxylic acid(2-bromo-4-chloro-5-methoxy-phenyl)-] |
| 6.6 | COc1cc(NC(=O)C2=CNC(=O)CC2c2ccc(F)cc2)c(Br)cc1C (stereo not drawn) [Compound 4, 4-(4-Fluoro-phenyl)-6-oxo-1,4,5,6-tetrahydro-pyridine-3-carboxylic acid(2-bromo-5-methoxy-4-methyl-phenyl)-amide] |
| 6.726 | COc1cc(NC(=O)C2=CNC(=O)CC2c2cccc(F)c2)c(Br)cc1C (stereo not drawn) [Compound 5, 4-(3-Fluoro-phenyl)-6-oxo-1,4,5,6-tetrahydro-pyridine-3-carboxylic acid(2-bromo-5-methoxy-4-methyl-phenyl)-amide] |
| 6.166 | COc1cc(NC(=O)C2=CNC(=O)CC2c2ccc(F)cc2)c(Br)cc1Cl (stereo not drawn) [Compound 6, 4-(4-Fluoro-phenyl)-6-oxo-1,4,5,6-tetrahydro-pyridine-3-carboxylic acid(2-bromo-4-chloro-5-methoxy-phenyl)-amide] |
| 7.463 | COc1cc(Br)c(NC(=O)C2=CNC(=O)CC2c2ccc(F)cc2)cc1OC (stereo not drawn) [Compound 7, 4-(4-Fluoro-phenyl)-6-oxo-1,4,5,6-tetrahydro-pyridine-3-carboxylic acid(2-bromo-4,5-dimethoxy-phenyl)-amide] |
| 6.766 | COc1cc(NC(=O)C2=CNC(=O)CC2c2cccc(F)c2)c(Br)cc1Cl (stereo not drawn) [Compound 9, 4-(3-Fluoro-phenyl)-6-oxo-1,4,5,6-tetrahydro-pyridine-3-carboxylic acid(2-bromo-4-chloro-5-methoxy-phenyl)-amide] |
| 5.543 | COc1cc(NC(=O)C2=CNC(=O)CC2c2ccc(F)cc2)ccc1Cl (stereo not drawn) [Compound 10, 4-(4-Fluoro-phenyl)-6-oxo-1,4,5,6-tetrahydro-pyridine-3-carboxylic acid(4-chloro-3-methoxy-phenyl)-amide] |
| 6.03 | COc1cc(NC(=O)C2=CNC(=O)CC2c2ccc(F)cc2)ccc1C (stereo not drawn) [Compound 11, 4-(4-Fluoro-phenyl)-6-oxo-1,4,5,6-tetrahydro-pyridine-3 carboxylic acid(3-methoxy-4-methyl-phenyl)-amide] |
| 6.155 | COc1cc(Br)c(NC(=O)C2=CNC(=O)C[C@@H]2c2ccccc2)cc1OC [Compound 12, (R)-6-Oxo-4-phenyl-1,4,5,6-tetrahydro-pyridine-3-carboxylic acid(2-bromo-4,5-dimethoxy-phenyl)-amide] |
| 7.455 | COc1cc(Br)c(NC(=O)C2=CNC(=O)C[C@H]2c2ccccc2)cc1OC [Compound 13, (S)-6-Oxo-4-phenyl-1,4,5,6-tetrahydro-pyridine-3-carboxylic acid(2-bromo-4,5-dimethoxy-phenyl)-amide] |
| 6.535 | Cc1cc(C)cc(NC(=O)C2=CNC(=O)CC2c2ccc(F)cc2)c1 (stereo not drawn) [Compound 14, 4-(4-Fluoro-phenyl)-6-oxo-1,4,5,6-tetrahydro-pyridine-3-carboxylic acid(3,5-dimethyl-phenyl)-amide] |
| 6.43 | COC(=O)c1ccc(C)c(NC(=O)C2=CNC(=O)CC2c2cccc(F)c2)c1 (stereo not drawn) [Compound 16, 3-{[4-(3-Fluoro-phenyl)-6-oxo-1,4,5,6-tetrahydro-pyridine-3-carbonyl]-amino}-4-methyl-benzoic acid methyl ester] |
| 6.77 | COc1cc(Br)c(NC(=O)C2=CNC(=O)CC2c2cccc(F)c2)cc1OC (stereo not drawn) [Compound 17, 4-(3-Fluoro-phenyl)-6-oxo-1,4,5,6-tetrahydro-pyridine-3-carboxylic acid(2-bromo-4,5-dimethoxy-phenyl)-amide] |
| 6.08 | COc1ccc(Br)c(NC(=O)C2=CNC(=O)CC2c2ccc(F)cc2)c1 (stereo not drawn) [Compound 18, 4-(4-Fluoro-phenyl)-6-oxo-1,4,5,6-tetrahydro-pyridine-3-carboxylic acid(2-bromo-5-methoxy-phenyl)-amide] |
| 6.19 | COc1ccc(Br)c(NC(=O)C2=CNC(=O)CC2c2cccc(F)c2)c1 (stereo not drawn) [Compound 19, 4-(3-Fluoro-phenyl)-6-oxo-1,4,5,6-tetrahydro-pyridine-3-carboxylic acid(2-bromo-5-methoxy-phenyl)-amide] |
| 6.815 | COc1ccc(C)c(NC(=O)C2=CNC(=O)CC2c2cccc(F)c2)c1 (stereo not drawn) [Compound 20, 4-(3-Fluoro-phenyl)-6-oxo-1,4,5,6-tetrahydro-pyridine-3-carboxylic acid(5-methoxy-2-methyl-phenyl)-amide] |
| 6.02 | CC(=O)Nc1ccc(Cl)c(NC(=O)C2=CNC(=O)CC2c2cccc(F)c2)c1 (stereo not drawn) [Compound 21, 4-(3-Fluoro-phenyl)-6-oxo-1,4,5,6-tetrahydro-pyridine-3-carboxylic acid(5-acetylamino-2-chloro-phenyl)-amide] |
| 6.12 | COc1cc(NC(=O)C2=CNC(=O)CC2c2cccc(F)c2)c(Cl)cc1Cl (stereo not drawn) [Compound 22, 4-(3-Fluoro-phenyl)-6-oxo-1,4,5,6-tetrahydro-pyridine-3-carboxylic acid(2,4-dichloro-5-methoxy-phenyl)-amide] |
| 5.92 | COC(=O)c1cc(Br)c(NC(=O)C2=CNC(=O)CC2c2cccc(F)c2)cc1OC (stereo not drawn) [Compound 23, 5-Bromo-4-{[4-(3-fluoro-phenyl)-6-oxo-1,4,5,6-tetrahydro-pyridine-3-carbonyl]-amino}-2-methoxy-benzoic acid methyl ester] |
| 7.69 | COc1cc(C)c(NC(=O)C2=CNC(=O)CC2c2cccc(F)c2)cc1OC (stereo not drawn) [Compound 24, 4-(3-Fluoro-phenyl)-6-oxo-1,4,5,6-tetrahydro-pyridine-3-carboxylic acid(4,5-dimethoxy-2-methyl-phenyl)-amide] |
| 5.395 | O=C1CC(c2cccc(F)c2)C(C(=O)Nc2cc(O)ccc2Cl)=CN1 (stereo not drawn) [Compound 25, 4-(3-Fluoro-phenyl)-6-oxo-1,4,5,6-tetrahydro-pyridine-3-carboxylic acid(2-chloro-5-hydroxy-phenyl)-amide] |
| 5.73 | Cc1ccc(Cl)c(NC(=O)C2=CNC(=O)CC2c2cccc(F)c2)c1F (stereo not drawn) [Compound 26, 4-(3-Fluoro-phenyl)-6-oxo-1,4,5,6-tetrahydro-pyridine-3-carboxylic acid(6-chloro-2-fluoro-3-methyl-phenyl)-amide] |
| 5.18 | O=C1CC(c2cccc(F)c2)C(C(=O)Nc2cc(Cl)ccc2OC(F)F)=CN1 (stereo not drawn) [Compound 27, 4-(3-Fluoro-phenyl)-6-oxo-1,4,5,6-tetrahydro-pyridine-3-carboxylic acid(5-chloro-2-difluoromethoxy-phenyl)-amide] |
| 5.215 | O=C1CC(c2cccc(F)c2)C(C(=O)Nc2c(F)cc(F)cc2Cl)=CN1 (stereo not drawn) [Compound 28, 4-(3-Fluoro-phenyl)-6-oxo-1,4,5,6-tetrahydro-pyridine-3-carboxylic acid(2-chloro-4,6-difluoro-phenyl)-amide] |
| 6.405 | COc1cc(NC(=O)C2=CNC(=O)C[C@@H]2c2cccc(F)c2)c(Br)cc1C [Compound 29, (R)-4-(3-Fluoro-phenyl)-6-oxo-1,4,5,6-tetrahydro-pyridine-3-carboxylic acid(2-bromo-5-methoxy-4-methyl-phenyl)-amide] |
